Assay [1] concerns the target Macrophage migration inhibitory factor (Rattus norvegicus, UniProt P30904). Nature of the assay: Scintillation proximity assay (SPA) measurement of selective [3H]-BTZO-1 binding to rMIF-His. In general terms: In a scintillation proximity assay essentially only radioactivity close to the scintillant gives light.
Assay [2] has as its target Epithelial discoidin domain-containing receptor 1 (Homo sapiens) (UniProt Q08345). Conditions: Compound concentration 1000.0 nM.
The target of assay [3] is 5-hydroxytryptamine receptor 2B (Homo sapiens) (UniProt P41595). The note with it: Compound concentration 10.0 uM.
Assay [4] concerns the target Cyclin-dependent kinase 8 (Homo sapiens, UniProt P49336). The assay can be described thus: Inhibition of CDK8 at compound concentration of 10.0 uM using the ScanMax (DiscoverX).
The target of assay [5] is Sigma intracellular receptor 2 (Homo sapiens) (UniProt Q5BJF2). The note with it: Compound concentration 10.0 uM.
Assay [6] deals with Tyrosine-protein kinase Tec (Homo sapiens) (UniProt P42680). The note with it: Compound concentration 1000.0 nM.
The target of assay [7] is Tyrosine-protein kinase Mer (Homo sapiens) (UniProt Q12866). The note with it: Compound concentration 1000.0 nM.
In assay [8] the target is Muscarinic acetylcholine receptor M1 (Homo sapiens) (UniProt P11229). Conditions: Compound concentration 10.0 uM.
Assay [9] addresses Sigma non-opioid intracellular receptor 1 (Homo sapiens) (UniProt Q99720). The note with it: Compound concentration 10.0 uM.
Assay [10] deals with T1, Macrophage migration inhibitory factor (Homo sapiens) (UniProt P14174).
T1 sequence (whole entry): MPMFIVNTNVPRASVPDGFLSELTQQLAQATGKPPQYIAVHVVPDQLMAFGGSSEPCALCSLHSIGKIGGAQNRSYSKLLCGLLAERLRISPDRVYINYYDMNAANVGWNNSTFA
Nature of the assay: Apoptosis inhibition.

The test system of assay [11] is Phosphatidylinositol 4,5-bisphosphate 3-kinase catalytic subunit alpha isoform (Homo sapiens), P42336 [I800L]. The note with it: Compound concentration 1000.0 nM.
The target in assay [12] is GABA-A receptor; anion channel. Nature of the assay: GPCRScan assay: inhibition of GABAA/BZP. The arrangement: radioligand conc. used [nm] 0.6 – 4.0, parental cells brain tissue. Format: protein-complex assay, Rattus norvegicus.
For assay [13], the target named is Mitogen-activated protein kinase kinase kinase 7 (Homo sapiens) (UniProt O43318). The note with it: Compound concentration 1000.0 nM.
The target in assay [14] is 5-hydroxytryptamine receptor 6 (Homo sapiens) (UniProt P50406). The note with it: Compound concentration 10.0 uM.
The target of assay [15] is G protein-coupled receptor kinase 3 (Homo sapiens) (UniProt P35626). The note with it: Compound concentration 1000.0 nM.
Assay [16] concerns the target GABA-A receptor; anion channel (Rattus norvegicus) (UniProt O09028+P15431+P18506+P18508+P19969+P20236+P23574+P23576+P28471+P28473+P30191+P62813+P63079+P63138+Q91ZM7+Q9ES14). The note with it: Compound concentration 10.0 uM.
The target in assay [17] is Macrophage migration inhibitory factor (Homo sapiens, UniProt P14174). Nature of the assay: Scintillation proximity assay (SPA) measurement of selective [3H]-BTZO-1 binding to hMIF-His.
In assay [18] the target is 5-hydroxytryptamine receptor 7 (Homo sapiens) (UniProt P34969). The note with it: Compound concentration 10.0 uM.
Assay [19] concerns the target Muscarinic acetylcholine receptor M4 (Homo sapiens) (UniProt P08173). Conditions: Compound concentration 10.0 uM.
Assay [20] addresses 5-hydroxytryptamine receptor 1D (Homo sapiens) (UniProt P28221). The note with it: Compound concentration 10.0 uM.
Assay [21] concerns the target 5-hydroxytryptamine receptor 5A (Homo sapiens) (UniProt P47898). The note with it: Compound concentration 10.0 uM.
The target of assay [22] is Alpha-1A adrenergic receptor (Homo sapiens) (UniProt P35348). Conditions: Compound concentration 10.0 uM.
Assay [23] deals with G protein-coupled receptor kinase 3 (Homo sapiens, UniProt P35626). Nature of the assay: Inhibition of GRK3 at compound concentration of 10.0 uM using the ScanMax (DiscoverX).
Assay [24] has as its target Death-associated protein kinase 3 (Homo sapiens, UniProt O43293). The assay can be described thus: Inhibition of DAPK3 at compound concentration of 10.0 uM using the ScanMax (DiscoverX).
Assay [25] deals with Histamine H1 receptor (Homo sapiens) (UniProt P35367). The note with it: Compound concentration 10.0 uM.

pKi: −log10 of the molar value. The source made the active and inactive calls. The calls are words filed in the database; no cut-off is given here.

Epithelial discoidin domain-containing receptor 1 (Homo sapiens), sequence (Q08345 whole entry, the tested form may be a part): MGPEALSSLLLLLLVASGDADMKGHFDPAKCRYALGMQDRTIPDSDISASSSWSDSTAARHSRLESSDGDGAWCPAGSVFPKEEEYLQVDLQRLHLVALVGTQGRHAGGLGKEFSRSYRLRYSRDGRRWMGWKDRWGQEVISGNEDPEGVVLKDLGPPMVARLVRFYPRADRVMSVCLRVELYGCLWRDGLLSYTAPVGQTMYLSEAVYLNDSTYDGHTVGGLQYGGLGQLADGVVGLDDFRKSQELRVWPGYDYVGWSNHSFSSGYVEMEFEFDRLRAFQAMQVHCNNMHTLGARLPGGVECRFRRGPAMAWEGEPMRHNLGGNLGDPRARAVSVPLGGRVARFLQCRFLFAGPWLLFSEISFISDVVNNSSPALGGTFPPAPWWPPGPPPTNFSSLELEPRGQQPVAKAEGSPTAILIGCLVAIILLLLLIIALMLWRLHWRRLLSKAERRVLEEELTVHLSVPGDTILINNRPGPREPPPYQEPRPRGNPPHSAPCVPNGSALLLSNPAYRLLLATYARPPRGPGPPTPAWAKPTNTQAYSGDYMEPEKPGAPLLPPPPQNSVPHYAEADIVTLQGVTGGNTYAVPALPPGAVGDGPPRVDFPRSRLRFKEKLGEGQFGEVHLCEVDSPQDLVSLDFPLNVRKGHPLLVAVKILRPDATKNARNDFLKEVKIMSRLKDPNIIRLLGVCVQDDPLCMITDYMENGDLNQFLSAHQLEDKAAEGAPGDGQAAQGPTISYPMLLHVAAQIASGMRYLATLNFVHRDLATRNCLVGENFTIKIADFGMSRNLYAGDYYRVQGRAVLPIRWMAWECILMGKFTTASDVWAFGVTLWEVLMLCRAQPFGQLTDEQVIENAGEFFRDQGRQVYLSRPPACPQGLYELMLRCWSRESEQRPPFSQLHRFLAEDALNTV
Tyrosine-protein kinase Mer (Homo sapiens), sequence (Q12866 whole entry): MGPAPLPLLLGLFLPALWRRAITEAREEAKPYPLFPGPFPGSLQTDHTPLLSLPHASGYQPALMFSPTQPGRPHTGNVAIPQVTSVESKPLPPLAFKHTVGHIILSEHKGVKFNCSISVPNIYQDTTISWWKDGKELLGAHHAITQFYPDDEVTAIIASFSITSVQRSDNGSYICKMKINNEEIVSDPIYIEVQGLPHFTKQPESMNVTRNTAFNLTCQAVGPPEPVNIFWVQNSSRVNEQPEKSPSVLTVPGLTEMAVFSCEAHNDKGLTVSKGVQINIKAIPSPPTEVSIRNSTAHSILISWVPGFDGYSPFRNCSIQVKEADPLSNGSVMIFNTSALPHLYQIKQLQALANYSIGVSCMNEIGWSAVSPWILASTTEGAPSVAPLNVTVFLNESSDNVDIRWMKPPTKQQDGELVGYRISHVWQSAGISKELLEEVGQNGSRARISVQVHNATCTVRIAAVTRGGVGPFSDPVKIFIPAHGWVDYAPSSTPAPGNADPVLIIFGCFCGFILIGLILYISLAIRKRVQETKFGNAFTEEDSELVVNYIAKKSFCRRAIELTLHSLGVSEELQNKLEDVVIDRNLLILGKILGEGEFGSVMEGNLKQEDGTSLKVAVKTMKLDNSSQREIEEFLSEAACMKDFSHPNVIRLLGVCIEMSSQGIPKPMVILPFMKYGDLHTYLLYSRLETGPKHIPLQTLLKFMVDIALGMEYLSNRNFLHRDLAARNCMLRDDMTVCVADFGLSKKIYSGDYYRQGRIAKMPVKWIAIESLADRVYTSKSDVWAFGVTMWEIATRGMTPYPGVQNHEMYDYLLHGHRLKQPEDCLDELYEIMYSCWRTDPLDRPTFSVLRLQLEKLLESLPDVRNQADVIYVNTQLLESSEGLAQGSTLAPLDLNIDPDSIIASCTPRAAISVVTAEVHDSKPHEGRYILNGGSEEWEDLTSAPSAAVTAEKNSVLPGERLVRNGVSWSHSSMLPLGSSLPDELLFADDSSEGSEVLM
Mitogen-activated protein kinase kinase kinase 7 (Homo sapiens), sequence (O43318 whole entry): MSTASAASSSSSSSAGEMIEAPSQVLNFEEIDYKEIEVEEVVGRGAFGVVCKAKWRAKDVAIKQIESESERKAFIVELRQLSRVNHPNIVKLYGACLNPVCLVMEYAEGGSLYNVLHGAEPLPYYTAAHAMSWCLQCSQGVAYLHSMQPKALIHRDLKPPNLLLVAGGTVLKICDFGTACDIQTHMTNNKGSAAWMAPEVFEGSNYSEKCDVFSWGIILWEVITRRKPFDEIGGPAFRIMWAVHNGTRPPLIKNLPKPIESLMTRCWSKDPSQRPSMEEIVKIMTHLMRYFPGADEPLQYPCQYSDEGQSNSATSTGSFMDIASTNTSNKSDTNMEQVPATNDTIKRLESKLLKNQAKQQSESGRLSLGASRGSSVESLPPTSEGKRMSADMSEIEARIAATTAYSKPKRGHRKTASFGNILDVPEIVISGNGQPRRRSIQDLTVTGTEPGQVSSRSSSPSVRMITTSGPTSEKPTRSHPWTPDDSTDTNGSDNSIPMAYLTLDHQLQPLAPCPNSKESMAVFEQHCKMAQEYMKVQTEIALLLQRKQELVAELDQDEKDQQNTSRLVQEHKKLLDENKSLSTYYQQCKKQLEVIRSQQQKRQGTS
5-hydroxytryptamine receptor 2B (Homo sapiens), sequence (P41595 whole entry): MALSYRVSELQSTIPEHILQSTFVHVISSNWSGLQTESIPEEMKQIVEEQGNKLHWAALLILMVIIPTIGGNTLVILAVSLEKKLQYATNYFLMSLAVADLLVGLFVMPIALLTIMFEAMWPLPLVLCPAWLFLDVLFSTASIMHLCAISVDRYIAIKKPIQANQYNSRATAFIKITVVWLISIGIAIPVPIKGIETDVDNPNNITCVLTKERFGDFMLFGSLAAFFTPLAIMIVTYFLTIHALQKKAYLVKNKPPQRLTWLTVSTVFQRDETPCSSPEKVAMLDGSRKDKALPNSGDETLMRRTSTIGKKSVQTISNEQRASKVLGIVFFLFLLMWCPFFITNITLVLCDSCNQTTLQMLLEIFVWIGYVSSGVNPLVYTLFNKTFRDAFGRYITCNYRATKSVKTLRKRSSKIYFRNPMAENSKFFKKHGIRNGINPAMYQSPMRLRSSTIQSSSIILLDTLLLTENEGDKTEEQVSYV
Tyrosine-protein kinase Tec (Homo sapiens), sequence (P42680 whole entry): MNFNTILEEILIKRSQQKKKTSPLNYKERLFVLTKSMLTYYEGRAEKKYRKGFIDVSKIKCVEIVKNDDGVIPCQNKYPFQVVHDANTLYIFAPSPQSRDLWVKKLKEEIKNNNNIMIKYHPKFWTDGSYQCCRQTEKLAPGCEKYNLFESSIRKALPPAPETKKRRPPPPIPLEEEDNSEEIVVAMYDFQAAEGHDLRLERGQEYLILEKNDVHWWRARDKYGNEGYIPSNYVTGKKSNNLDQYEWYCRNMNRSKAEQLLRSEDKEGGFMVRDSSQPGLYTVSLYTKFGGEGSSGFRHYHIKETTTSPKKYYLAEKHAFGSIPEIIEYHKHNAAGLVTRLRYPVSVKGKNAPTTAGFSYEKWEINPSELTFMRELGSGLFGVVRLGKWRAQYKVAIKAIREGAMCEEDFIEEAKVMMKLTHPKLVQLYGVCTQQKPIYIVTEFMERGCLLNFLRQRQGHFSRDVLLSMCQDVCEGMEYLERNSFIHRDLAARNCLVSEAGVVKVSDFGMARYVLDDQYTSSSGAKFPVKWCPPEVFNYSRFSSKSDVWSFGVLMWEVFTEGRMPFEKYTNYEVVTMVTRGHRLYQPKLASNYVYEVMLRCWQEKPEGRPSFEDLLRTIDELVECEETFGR
G protein-coupled receptor kinase 3 (Homo sapiens), sequence (P35626 whole entry): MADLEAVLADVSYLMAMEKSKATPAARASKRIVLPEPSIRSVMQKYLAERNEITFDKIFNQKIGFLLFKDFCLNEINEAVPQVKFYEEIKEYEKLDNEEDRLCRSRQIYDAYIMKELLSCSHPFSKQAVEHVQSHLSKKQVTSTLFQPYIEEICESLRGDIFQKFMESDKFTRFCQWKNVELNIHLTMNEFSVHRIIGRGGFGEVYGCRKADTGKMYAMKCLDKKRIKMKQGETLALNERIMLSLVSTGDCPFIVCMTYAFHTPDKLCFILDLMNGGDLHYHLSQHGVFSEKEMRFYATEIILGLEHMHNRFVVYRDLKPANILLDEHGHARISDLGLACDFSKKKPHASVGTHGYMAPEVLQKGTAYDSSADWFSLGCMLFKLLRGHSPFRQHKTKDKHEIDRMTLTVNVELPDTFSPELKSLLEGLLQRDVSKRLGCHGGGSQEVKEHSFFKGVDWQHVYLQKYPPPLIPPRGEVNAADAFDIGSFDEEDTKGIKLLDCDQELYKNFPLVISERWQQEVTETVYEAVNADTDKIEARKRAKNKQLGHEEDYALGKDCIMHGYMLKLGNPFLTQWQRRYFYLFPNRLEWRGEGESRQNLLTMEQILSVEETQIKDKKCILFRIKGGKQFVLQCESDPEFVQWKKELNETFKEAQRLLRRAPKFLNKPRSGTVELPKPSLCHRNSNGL
Cyclin-dependent kinase 8, sequence (P49336 whole entry): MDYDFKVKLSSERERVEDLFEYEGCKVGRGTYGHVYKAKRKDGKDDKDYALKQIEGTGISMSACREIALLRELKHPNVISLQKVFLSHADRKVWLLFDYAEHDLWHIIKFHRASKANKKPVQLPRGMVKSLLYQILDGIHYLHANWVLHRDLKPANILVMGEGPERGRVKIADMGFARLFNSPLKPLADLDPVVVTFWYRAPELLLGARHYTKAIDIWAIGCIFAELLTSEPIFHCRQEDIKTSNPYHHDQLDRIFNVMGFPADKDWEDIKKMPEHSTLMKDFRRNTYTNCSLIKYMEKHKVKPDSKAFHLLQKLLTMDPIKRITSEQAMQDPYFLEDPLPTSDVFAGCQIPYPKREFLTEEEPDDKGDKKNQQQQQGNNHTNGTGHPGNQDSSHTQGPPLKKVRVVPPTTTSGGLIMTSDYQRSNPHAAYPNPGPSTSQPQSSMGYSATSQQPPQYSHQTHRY
Macrophage migration inhibitory factor (Rattus norvegicus, UniProt P30904), sequence (P30904 2-115 limits assumed): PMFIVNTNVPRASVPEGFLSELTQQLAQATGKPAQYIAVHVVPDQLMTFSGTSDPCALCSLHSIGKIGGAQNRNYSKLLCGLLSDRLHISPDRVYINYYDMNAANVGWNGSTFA
G protein-coupled receptor kinase 3, sequence (P35626 whole entry): as the sequence (P35626 whole entry) above

Usually Kd stands for the constant that tells how readily two partners part at equilibrium. Usually inhibition stands for the change of the read-out against control, counted positive when it falls. Broadly, the pKi is the negative decadic logarithm of the Ki, by convention in mol/L. With `O=c1nc(-c2ccccn2)sc2ccccc12` [BTZO-1], the results for the Kd in assay [1], in assay [4] and in assay [17] were 157 nM (active), > 10000 nM (not active) and 68.6 nM (active), respectively. For the same compound, the residual activity in assay [2] was 85%; in [6] it was 82%; in assay [7], 82%; in [11], 84%; in assay [13], 78%; in [15], 51%. The inhibition was 34.3% in assay [3]; 12.5% in assay [5]; -5.27% in [8]; 14% in assay [9]; -1.33% in assay [14]; 6.23% in assay [16]. In addition, the MEC1.5 in assay [10] was 16 nM. Besides, the pKi in assay [12] is 6.03.
As to `O=C1NC(c2ccccn2)Sc2ccccc21` (configuration not stated) [BTZO-4], the residual activity in assay [2] is 86%; in assay [6], 75%; in [7] it was 75%; in assay [11], 80%; in assay [13], 99%; in [15], 42%. In addition, the inhibition was -5.37% in assay [3]; -5.1% in assay [18]; -4.7% in [19]; -4.84% in assay [20]; 1.93% in [21]; -9.97% in [22]. In addition, the inhibition in assay [25] is 49.9%. Further, the Kd in [23] and in [24] was > 10000 nM (not active) throughout.

The values above are taken from ChEMBL document CHEMBL4507329, “Data for DCP probe BTZO-1” (2021).
